Source: ChEMBL document CHEMBL4507324 (2021)

Tests used:
Conditions in all cases: Compound concentration 100.0 nM
[1] = target: Discoidin domain-containing receptor 2 (Homo sapiens) (UniProt Q16832)
[2] = target: Serine/threonine-protein kinase ULK1 (Homo sapiens) (UniProt O75385)
[3] = system: Tyrosine-protein kinase ABL1 (Homo sapiens), P00519 [F317L]
[4] = target: Serine/threonine-protein kinase ICK (Homo sapiens) (UniProt Q9UPZ9)
[5] = target: Tyrosine-protein kinase Fgr (Homo sapiens) (UniProt P09769)
[6] = system: Tyrosine-protein kinase ABL1 (Homo sapiens), P00519 [Y253F]
[7] = target: Serine/threonine-protein kinase PLK1 (Homo sapiens) (UniProt P53350)
[8] = target: RAF proto-oncogene serine/threonine-protein kinase (Homo sapiens) (UniProt P04049)
[9] = target: MAP kinase-interacting serine/threonine-protein kinase 1 (Homo sapiens) (UniProt Q9BUB5)
[10] = system: Receptor-type tyrosine-protein kinase FLT3 (Homo sapiens), P36888 [D835Y]
[11] = target: Mitogen-activated protein kinase 15 (Homo sapiens) (UniProt Q8TD08)
[12] = target: Casein kinase I isoform delta (Homo sapiens) (UniProt P48730)
[13] = target: Ephrin type-A receptor 7 (Homo sapiens) (UniProt Q15375)
[14] = target: RAC-alpha serine/threonine-protein kinase (Homo sapiens) (UniProt P31749)
[15] = target: Cyclin-dependent kinase 4 (Homo sapiens) (UniProt P11802)
[16] = target: Dual specificity mitogen-activated protein kinase kinase 2 (Homo sapiens) (UniProt P36507)
[17] = system: Mast/stem cell growth factor receptor Kit (Homo sapiens), P10721 [A829P]
[18] = target: Serine/threonine-protein kinase RIO1 (Homo sapiens) (UniProt Q9BRS2)
[19] = target: Serine/threonine-protein kinase D1 (Homo sapiens) (UniProt Q15139)
[20] = target: Homeodomain-interacting protein kinase 1 (Homo sapiens) (UniProt Q86Z02)
[21] = target: cGMP-dependent protein kinase 2 (Homo sapiens) (UniProt Q13237)
[22] = system: Mast/stem cell growth factor receptor Kit (Homo sapiens), P10721 [V559D,T670I]
[23] = target: Mitogen-activated protein kinase kinase kinase 11 (Homo sapiens) (UniProt Q16584)
[24] = target: Receptor-interacting serine/threonine-protein kinase 2 (Homo sapiens) (UniProt O43353)
[25] = target: Ephrin type-A receptor 6 (Homo sapiens) (UniProt Q9UF33)
[26] = target: LIM domain kinase 1 (Homo sapiens) (UniProt P53667)
[27] = target: Serine/threonine-protein kinase Chk1 (Homo sapiens) (UniProt O14757)
[28] = target: Ephrin type-B receptor 1 (Homo sapiens) (UniProt P54762)
[29] = target: Serine/threonine-protein kinase RIO2 (Homo sapiens) (UniProt Q9BVS4)
[30] = target: Ribosomal protein S6 kinase alpha-6 (Homo sapiens) (UniProt Q9UK32)
[31] = target: Serine/threonine-protein kinase Nek3 (Homo sapiens) (UniProt P51956)
[32] = target: Cyclin-dependent kinase 11A (Homo sapiens) (UniProt Q9UQ88)
[33] = target: Myosin light chain kinase family member 4 (Homo sapiens) (UniProt Q86YV6)
[34] = target: Serine/threonine-protein kinase Nek1 (Homo sapiens) (UniProt Q96PY6)
[35] = target: Serine/threonine-protein kinase D2 (Homo sapiens) (UniProt Q9BZL6)
[36] = target: cAMP-dependent protein kinase catalytic subunit PRKX (Homo sapiens) (UniProt P51817)
[37] = target: Non-receptor tyrosine-protein kinase TNK1 (Homo sapiens) (UniProt Q13470)
[38] = target: Serine/threonine-protein kinase SIK3 (Homo sapiens) (UniProt Q9Y2K2)
[39] = system: Receptor-type tyrosine-protein kinase FLT3 (Homo sapiens), P36888 [UNDEFINED MUTATION]
[40] = target: Cyclin-dependent kinase-like 1 (Homo sapiens) (UniProt Q00532)
[41] = target: Maternal embryonic leucine zipper kinase (Homo sapiens) (UniProt Q14680)
[42] = target: Leukocyte tyrosine kinase receptor (Homo sapiens) (UniProt P29376)
[43] = target: Casein kinase I isoform gamma-2 (Homo sapiens) (UniProt P78368)
[44] = system: Tyrosine-protein kinase ABL1 (Homo sapiens), P00519 [Q252H]
[45] = target: Serine/threonine-protein kinase PRP4 homolog (Homo sapiens) (UniProt Q13523)

Serine/threonine-protein kinase ULK1 (Homo sapiens), sequence (O75385 whole entry): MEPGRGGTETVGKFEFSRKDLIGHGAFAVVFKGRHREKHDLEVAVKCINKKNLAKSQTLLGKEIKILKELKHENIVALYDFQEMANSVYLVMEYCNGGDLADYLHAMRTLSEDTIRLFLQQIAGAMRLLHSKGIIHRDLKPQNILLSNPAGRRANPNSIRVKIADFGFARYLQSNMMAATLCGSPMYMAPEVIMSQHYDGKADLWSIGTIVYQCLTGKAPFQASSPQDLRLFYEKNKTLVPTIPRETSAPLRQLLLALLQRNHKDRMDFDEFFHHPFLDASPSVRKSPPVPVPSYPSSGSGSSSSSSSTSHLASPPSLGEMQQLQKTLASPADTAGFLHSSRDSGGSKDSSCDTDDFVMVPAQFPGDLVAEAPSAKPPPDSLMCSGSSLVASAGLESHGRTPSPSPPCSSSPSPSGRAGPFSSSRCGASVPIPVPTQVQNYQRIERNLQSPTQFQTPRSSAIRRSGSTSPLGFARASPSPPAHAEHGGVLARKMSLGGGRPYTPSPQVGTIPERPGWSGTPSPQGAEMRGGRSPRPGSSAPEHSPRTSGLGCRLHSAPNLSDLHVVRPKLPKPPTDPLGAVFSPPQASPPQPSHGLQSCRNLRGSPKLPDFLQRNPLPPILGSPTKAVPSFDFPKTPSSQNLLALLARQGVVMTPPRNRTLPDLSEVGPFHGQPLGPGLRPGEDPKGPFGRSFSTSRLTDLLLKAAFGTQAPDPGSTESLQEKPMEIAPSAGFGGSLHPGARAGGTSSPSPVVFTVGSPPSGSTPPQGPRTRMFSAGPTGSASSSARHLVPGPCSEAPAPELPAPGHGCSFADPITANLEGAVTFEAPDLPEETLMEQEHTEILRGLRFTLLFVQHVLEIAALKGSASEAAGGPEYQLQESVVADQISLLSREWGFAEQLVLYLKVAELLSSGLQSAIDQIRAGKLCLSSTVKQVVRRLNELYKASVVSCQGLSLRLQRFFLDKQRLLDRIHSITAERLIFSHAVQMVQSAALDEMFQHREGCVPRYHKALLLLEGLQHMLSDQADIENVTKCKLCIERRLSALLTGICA
Mitogen-activated protein kinase 15 (Homo sapiens), sequence (Q8TD08 whole entry, canonical isoform): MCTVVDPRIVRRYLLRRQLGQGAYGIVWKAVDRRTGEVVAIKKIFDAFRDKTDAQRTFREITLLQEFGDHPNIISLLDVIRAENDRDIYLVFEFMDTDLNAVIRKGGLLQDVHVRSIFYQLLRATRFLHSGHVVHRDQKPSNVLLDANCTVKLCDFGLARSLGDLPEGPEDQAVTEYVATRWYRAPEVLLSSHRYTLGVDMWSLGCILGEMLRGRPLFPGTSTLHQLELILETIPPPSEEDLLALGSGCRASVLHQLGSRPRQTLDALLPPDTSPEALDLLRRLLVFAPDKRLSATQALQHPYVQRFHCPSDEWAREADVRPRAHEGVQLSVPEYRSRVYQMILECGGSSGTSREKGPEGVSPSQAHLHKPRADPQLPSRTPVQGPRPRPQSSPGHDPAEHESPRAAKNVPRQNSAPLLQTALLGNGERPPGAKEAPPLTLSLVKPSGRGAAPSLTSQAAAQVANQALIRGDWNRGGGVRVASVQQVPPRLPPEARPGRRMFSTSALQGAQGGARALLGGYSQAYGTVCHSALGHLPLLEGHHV
Cyclin-dependent kinase 4 (Homo sapiens), sequence (P11802 whole entry): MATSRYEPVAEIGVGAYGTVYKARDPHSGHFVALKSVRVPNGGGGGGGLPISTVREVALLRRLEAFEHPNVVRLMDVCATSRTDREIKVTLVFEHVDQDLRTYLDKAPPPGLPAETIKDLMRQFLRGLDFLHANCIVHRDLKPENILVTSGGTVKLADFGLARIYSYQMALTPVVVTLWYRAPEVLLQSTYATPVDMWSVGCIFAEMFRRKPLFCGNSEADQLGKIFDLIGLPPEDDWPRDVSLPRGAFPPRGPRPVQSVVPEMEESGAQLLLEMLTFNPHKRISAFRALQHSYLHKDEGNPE
Cyclin-dependent kinase-like 1 (Homo sapiens), sequence (Q00532 whole entry): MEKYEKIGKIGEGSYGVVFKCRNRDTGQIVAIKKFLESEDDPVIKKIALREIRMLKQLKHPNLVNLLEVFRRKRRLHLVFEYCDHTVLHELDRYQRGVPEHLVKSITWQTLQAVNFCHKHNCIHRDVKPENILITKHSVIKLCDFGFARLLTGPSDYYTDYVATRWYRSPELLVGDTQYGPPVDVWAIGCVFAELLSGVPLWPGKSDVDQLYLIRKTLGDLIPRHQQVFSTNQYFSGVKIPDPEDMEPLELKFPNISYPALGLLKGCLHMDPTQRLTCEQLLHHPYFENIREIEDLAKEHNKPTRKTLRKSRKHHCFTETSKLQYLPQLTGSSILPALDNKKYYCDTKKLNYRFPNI
cGMP-dependent protein kinase 2 (Homo sapiens), sequence (Q13237 whole entry): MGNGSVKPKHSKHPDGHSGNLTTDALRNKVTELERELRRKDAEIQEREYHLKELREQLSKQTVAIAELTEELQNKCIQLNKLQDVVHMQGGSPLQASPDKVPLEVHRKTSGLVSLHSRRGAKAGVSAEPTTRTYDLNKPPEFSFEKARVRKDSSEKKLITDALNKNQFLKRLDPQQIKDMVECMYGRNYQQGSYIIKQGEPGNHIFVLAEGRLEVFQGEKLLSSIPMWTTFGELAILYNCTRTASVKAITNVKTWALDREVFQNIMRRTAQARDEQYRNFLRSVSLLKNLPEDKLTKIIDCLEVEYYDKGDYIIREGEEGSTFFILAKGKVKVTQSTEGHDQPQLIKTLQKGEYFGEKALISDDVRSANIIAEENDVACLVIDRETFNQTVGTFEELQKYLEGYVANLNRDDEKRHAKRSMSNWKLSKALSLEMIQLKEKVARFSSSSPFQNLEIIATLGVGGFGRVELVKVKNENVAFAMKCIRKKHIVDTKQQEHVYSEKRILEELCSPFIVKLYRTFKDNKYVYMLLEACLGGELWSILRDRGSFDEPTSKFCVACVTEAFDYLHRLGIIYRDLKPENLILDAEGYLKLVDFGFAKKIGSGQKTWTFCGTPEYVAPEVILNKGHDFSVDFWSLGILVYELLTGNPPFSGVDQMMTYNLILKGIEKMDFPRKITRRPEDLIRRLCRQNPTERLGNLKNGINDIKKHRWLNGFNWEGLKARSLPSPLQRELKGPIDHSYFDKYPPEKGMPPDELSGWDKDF
Serine/threonine-protein kinase Nek3 (Homo sapiens), sequence (P51956 whole entry): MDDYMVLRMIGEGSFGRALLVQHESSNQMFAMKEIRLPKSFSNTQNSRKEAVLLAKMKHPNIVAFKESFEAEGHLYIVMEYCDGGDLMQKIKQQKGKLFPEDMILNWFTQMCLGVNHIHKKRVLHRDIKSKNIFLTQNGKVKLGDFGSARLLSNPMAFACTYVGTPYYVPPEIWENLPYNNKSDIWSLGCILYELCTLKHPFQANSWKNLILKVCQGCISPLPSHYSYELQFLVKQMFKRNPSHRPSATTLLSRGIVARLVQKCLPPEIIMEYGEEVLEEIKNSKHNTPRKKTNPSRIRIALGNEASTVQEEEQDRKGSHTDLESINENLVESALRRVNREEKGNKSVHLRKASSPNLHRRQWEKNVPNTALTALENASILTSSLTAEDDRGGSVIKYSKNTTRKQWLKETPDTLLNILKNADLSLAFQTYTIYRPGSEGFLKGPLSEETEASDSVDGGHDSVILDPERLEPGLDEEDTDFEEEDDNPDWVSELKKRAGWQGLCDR
Mast/stem cell growth factor receptor Kit (Homo sapiens), P10721 [A829P], sequence (P10721 whole entry A829P): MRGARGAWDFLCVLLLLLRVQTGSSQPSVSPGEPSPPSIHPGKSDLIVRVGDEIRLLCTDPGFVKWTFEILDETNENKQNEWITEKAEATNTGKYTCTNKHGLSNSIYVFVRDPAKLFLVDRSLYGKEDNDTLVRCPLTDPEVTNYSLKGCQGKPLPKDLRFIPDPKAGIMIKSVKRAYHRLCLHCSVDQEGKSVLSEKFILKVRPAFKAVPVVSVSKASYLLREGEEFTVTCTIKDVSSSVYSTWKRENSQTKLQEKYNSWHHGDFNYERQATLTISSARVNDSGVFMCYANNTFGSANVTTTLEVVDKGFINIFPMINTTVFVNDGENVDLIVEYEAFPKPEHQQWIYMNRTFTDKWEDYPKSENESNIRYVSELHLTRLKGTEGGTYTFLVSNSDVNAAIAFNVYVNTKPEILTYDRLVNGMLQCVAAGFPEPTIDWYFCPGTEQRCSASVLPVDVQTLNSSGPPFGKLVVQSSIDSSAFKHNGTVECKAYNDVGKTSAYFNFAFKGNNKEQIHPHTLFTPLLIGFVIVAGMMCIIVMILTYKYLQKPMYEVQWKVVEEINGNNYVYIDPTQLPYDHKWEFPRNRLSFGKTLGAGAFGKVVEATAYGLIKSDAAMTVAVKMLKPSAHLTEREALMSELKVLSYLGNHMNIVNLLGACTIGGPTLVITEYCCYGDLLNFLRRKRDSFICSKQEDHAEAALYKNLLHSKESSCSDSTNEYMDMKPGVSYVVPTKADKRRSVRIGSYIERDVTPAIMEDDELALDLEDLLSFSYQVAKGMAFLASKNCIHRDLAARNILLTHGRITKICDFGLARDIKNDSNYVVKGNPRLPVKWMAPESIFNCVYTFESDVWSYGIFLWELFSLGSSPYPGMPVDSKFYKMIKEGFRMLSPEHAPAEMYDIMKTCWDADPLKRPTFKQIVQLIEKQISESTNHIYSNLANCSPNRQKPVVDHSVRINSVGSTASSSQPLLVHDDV
Casein kinase I isoform gamma-2 (Homo sapiens), sequence (P78368 whole entry, looked up, canonical isoform): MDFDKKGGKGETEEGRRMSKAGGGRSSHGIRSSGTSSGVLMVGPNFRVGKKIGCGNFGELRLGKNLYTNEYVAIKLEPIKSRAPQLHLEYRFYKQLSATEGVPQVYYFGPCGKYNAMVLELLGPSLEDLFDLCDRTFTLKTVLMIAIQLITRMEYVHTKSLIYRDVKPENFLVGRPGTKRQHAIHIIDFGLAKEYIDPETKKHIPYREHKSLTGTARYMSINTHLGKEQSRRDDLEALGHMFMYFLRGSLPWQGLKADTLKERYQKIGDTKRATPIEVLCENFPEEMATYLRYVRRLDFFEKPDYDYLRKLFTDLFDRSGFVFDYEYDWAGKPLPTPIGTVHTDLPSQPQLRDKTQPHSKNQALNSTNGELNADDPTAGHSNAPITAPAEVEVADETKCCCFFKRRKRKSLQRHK
Mast/stem cell growth factor receptor Kit (Homo sapiens), P10721 [V559D,T670I], sequence (P10721 whole entry V559D/T670I): as the sequence (P10721 whole entry A829P) above, with V559D, T670I, P829A counted along it

`CS(=O)(=O)N1CCCC(NC(=O)[C@H](CCC2CCCCC2)NC(=O)c2ccc(CNc3ncnc4c3nnn4-c3ccccc3)cc2)C1` (stereo not given in full) [SR-301] showed a residual activity [1] of 100%, a residual activity [2] of 100% and a residual activity [3] of 100%. It also gave a residual activity [4] of 100%, a residual activity [5] of 88% and a residual activity [6] of 84%. For the same compound, the residual activity [7] was 80%, the residual activity [8] was 70% and the residual activity [9] was 86%. It also gave a residual activity [10] of 93%, a residual activity [11] of 100% and a residual activity [12] of 96%. For the same compound, the residual activity [13] was 98%, the residual activity [14] was 100% and the residual activity [15] was 100%. The residual activity [16] was 90%, the residual activity [17] was 100% and the residual activity [18] was 54%. It also gave a residual activity [19] of 91%, a residual activity [20] of 100% and a residual activity [21] of 79%. For the same compound, the residual activity [22] was 100%, the residual activity [23] was 92% and the residual activity [24] was 59%. For the same compound, the residual activity [25] was 100%, the residual activity [26] was 100% and the residual activity [27] was 100%. The residual activity [28] was 100%, the residual activity [29] was 99% and the residual activity [30] was 100%. It also gave a residual activity [31] of 100%, a residual activity [32] of 87% and a residual activity [33] of 100%. It also gave a residual activity [34] of 51%, a residual activity [35] of 92% and a residual activity [36] of 100%. For the same compound, the residual activity [37] was 96%, the residual activity [38] was 78% and the residual activity [39] was 100%. It also gave a residual activity [40] of 71%, a residual activity [41] of 100% and a residual activity [42] of 100%. It also gave a residual activity [43] of 82%, a residual activity [44] of 89% and a residual activity [45] of 60%.

Work on `CS(=O)(=O)N1CCCC(NC(=O)[C@H](CCC2CCCCC2)NC(=O)c2ccc(CNC(=O)c3cnc4ccccn34)cc2)C1` (stereo not given in full) [SR-302] yielded a residual activity [1] of 0%, a residual activity [2] of 83% and a residual activity [3] of 32%. It also gave a residual activity [4] of 100%, a residual activity [5] of 87% and a residual activity [6] of 76%. The residual activity [7] was 100%, the residual activity [8] was 61% and the residual activity [9] was 100%. The residual activity [10] was 100%, the residual activity [11] was 100% and the residual activity [12] was 84%. The residual activity [13] was 96%, the residual activity [14] was 100% and the residual activity [15] was 100%. It also gave a residual activity [16] of 100%, a residual activity [17] of 66% and a residual activity [18] of 73%. It also gave a residual activity [19] of 93%, a residual activity [20] of 100% and a residual activity [21] of 82%. The residual activity [22] was 77%, the residual activity [23] was 100% and the residual activity [24] was 30%. For the same compound, the residual activity [25] was 100%, the residual activity [26] was 75% and the residual activity [27] was 100%. It also gave a residual activity [28] of 89%, a residual activity [29] of 100% and a residual activity [30] of 82%. For the same compound, the residual activity [31] was 100%, the residual activity [32] was 100% and the residual activity [33] was 63%. For the same compound, the residual activity [34] was 68%, the residual activity [35] was 100% and the residual activity [36] was 65%. The residual activity [37] was 100%, the residual activity [38] was 100% and the residual activity [39] was 100%. The residual activity [40] was 91%, the residual activity [41] was 100% and the residual activity [42] was 100%. The residual activity [43] was 70%, the residual activity [44] was 37% and the residual activity [45] was 74%.
